The values below are quoted from earlier work in PubChem BioAssay AID1259409 (Chemical Carcinogenesis Research Information System (CCRIS), 2018).

Molecules are shown by their SMILES.

The data set deals with rodent chemically induced tumor inhibition, incidence and multiplicity. The data set can be described thus: CCRIS tumor inhibitor studies. The following applies: Route [Inhibitor]: ORAL, Promoter: NONE USED.

`COc1ccc([C@@H]2CC(=O)c3c(O)cc(O[C@@H]4O[C@H](CO[C@@H]5O[C@@H](C)[C@H](O)[C@@H](O)[C@H]5O)[C@@H](O)[C@H](O)[C@H]4O)cc3O2)cc1O`: the “tumour outcome (control, treated, inhibition, significance)” value reads like this: (Carcinogen: AZOXYMETHANE, 25843-45-2, Dose [Inhibitor]: 0, 1000 PPM IN DIET FOR 28 WK BEGINNING 1 WK POST CARCINOGEN TREATMENT (STUDY DURATION: 32 WK), Species: RAT, Strain/Sex: F344/MALE, Target Tissue: Type of Lesion: SMALL INTESTINE: TUMOR, Dose [Carcinogen]: 15 MG/KG BW 1/WK FOR 3 WK) 5/17 (29%), 0/20 (0%), 100%, p<0.05; (Carcinogen: N-BUTYL-N-(4-HYDROXYBUTYL)NITROSAMINE, 3817-11-6, Dose [Inhibitor]: 0, 1000 PPM IN DIET FOR 8 WK BEGINNING 1 WK PRIOR TO CARCINOGEN TREATMENT (STUDY DURATION: 32 WK), Species: MOUSE, Strain/Sex: ICR/MALE, Target Tissue: Type of Lesion: URINARY BLADDER: PAPILLOMA, Dose [Carcinogen]: 500 PPM IN DRINKING WATER FOR 6 WK) 5/26 (19%), 1/23 (4%), 79%, not significant; (Carcinogen: N-BUTYL-N-(4-HYDROXYBUTYL)NITROSAMINE, 3817-11-6, Dose [Inhibitor]: 0, 1000 PPM IN DIET FOR 24 WK BEGINNING 1 WK POST CARCINOGEN TREATMENT (STUDY DURATION: 32 WK), Species: MOUSE, Strain/Sex: ICR/MALE, Target Tissue: Type of Lesion: URINARY BLADDER: PAPILLOMA, Dose [Carcinogen]: 500 PPM IN DRINKING WATER FOR 6 WK) 5/26 (19%), 3/25 (12%), 37%, not significant; (Carcinogen: N-BUTYL-N-(4-HYDROXYBUTYL)NITROSAMINE, 3817-11-6, Dose [Inhibitor]: 0, 1000 PPM IN DIET FOR 24 WK BEGINNING 1 WK POST CARCINOGEN TREATMENT (STUDY DURATION: 32 WK), Species: MOUSE, Strain/Sex: ICR/MALE, Target Tissue: Type of Lesion: URINARY BLADDER: TRANSITIONAL CELL CARCINOMA, Dose [Carcinogen]: 500 PPM IN DRINKING WATER FOR 6 WK) 16/26 (62%), 5/25 (20%), 68%, p<0.005; (Carcinogen: N-BUTYL-N-(4-HYDROXYBUTYL)NITROSAMINE, 3817-11-6, Dose [Inhibitor]: O, 1000 PPM IN DIET FOR 8 WK BEGINNING 1 WK PRIOR TO CARCINOGEN TREATMENT (STUDY DURATION: 32 WK), Species: MOUSE, Strain/Sex: ICR/MALE, Target Tissue: Type of Lesion: URINARY BLADDER: TRANSITIONAL CELL CARCINOMA, Dose [Carcinogen]: 500 PPM IN DRINKING WATER FOR 6 WK) 16/26 (62%), 3/23 (13%), 79%, p<0.001; (Carcinogen: N-METHYL-N-AMYLNITROSAMINE, 13256-07-0, Dose [Inhibitor]: 0, 1000 PPM IN DIET FOR 7 WK BEGINNING 1 WK POST CARCINOGEN TREATMENT (STUDY DURATION: 20 WK), Species: RAT, Strain/Sex: WISTAR/MALE, Target Tissue: Type of Lesion: ESOPHAGUS: SQUAMOUS CELL CARCINOMA, Dose [Carcinogen]: 12.5 MG/KG BW 1/WK FOR 12 WK) 75%, 56%, 25%, not significant. Moreover, the “tumour outcome (control, treated, inhibition, significance)” value is given as 100%, 100%, 0%, not significant (Carcinogen: N-METHYL-N-AMYLNITROSAMINE, 13256-07-0, Dose [Inhibitor]: 0, 1000 PPM IN DIET FOR 7 WK BEGINNING 1 WK POST CARCINOGEN TREATMENT (STUDY DURATION: 20 WK), Species: RAT, Strain/Sex: WISTAR/MALE, Target Tissue: Type of Lesion: ESOPHAGUS: SQUAMOUS CELL PAPILLOMA, Dose [Carcinogen]: 12.5 MG/KG BW 1/WK FOR 12 WK); 17%, 16%, 6%, not significant (Carcinogen: N-METHYL-N-AMYLNITROSAMINE, 13256-07-0, Dose [Inhibitor]: 0, 1000 PPM IN DIET FOR 7 WK BEGINNING 1 WK POST CARCINOGEN TREATMENT (STUDY DURATION: 20 WK), Species: RAT, Strain/Sex: WISTAR/MALE, Target Tissue: Type of Lesion: TONGUE: SQUAMOUS CELL CARCINOMA, Dose [Carcinogen]: 12.5 MG/KG BW 1/WK FOR 12 WK); 33%, 16%, 52%, not calculated (Carcinogen: N-METHYL-N-AMYLNITROSAMINE, 13256-07-0, Dose [Inhibitor]: 0, 1000 PPM IN DIET FOR 7 WK BEGINNING 1 WK POST CARCINOGEN TREATMENT (STUDY DURATION: 20 WK), Species: RAT, Strain/Sex: WISTAR/MALE, Target Tissue: Type of Lesion: TONGUE: SQUAMOUS CELL PAPILLOMA, Dose [Carcinogen]: 12.5 MG/KG BW 1/WK FOR 12 WK); 75%, 45%, 40%, not significant (Carcinogen: N-METHYL-N-AMYLNITROSAMINE, 13256-07-0, Dose [Inhibitor]: 0, 1000 PPM IN DIET FOR 13 WK BEGINNING 1 WK PRIOR TO CARCINOGEN TREATMENT (STUDY DURATION: 20 WK), Species: RAT, Strain/Sex: WISTAR/MALE, Target Tissue: Type of Lesion: ESOPHAGUS: SQUAMOUS CELL CARCINOMA, Dose [Carcinogen]: 12.5 MG/KG BW 1/WK FOR 12 WK); 100%, 100%, 0%, not significant (Carcinogen: N-METHYL-N-AMYLNITROSAMINE, 13256-07-0, Dose [Inhibitor]: 0, 1000 PPM IN DIET FOR 13 WK BEGINNING 1 WK PRIOR TO CARCINOGEN TREATMENT (STUDY DURATION: 20 WK), Species: RAT, Strain/Sex: WISTAR/MALE, Target Tissue: Type of Lesion: ESOPHAGUS: SQUAMOUS CELL PAPILLOMA, Dose [Carcinogen]: 12.5 MG/KG BW 1/WK FOR 12 WK); 17%, 0%, 100%, not calculated (Carcinogen: N-METHYL-N-AMYLNITROSAMINE, 13256-07-0, Dose [Inhibitor]: 0, 1000 PPM IN DIET FOR 13 WK BEGINNING 1 WK PRIOR TO CARCINOGEN TREATMENT (STUDY DURATION: 20 WK), Species: RAT, Strain/Sex: WISTAR/MALE, Target Tissue: Type of Lesion: TONGUE: SQUAMOUS CELL CARCINOMA, Dose [Carcinogen]: 12.5 MG/KG BW 1/WK FOR 12 WK). In addition, the “tumour outcome (control, treated, inhibition, significance)” value (Carcinogen: N-METHYL-N-AMYLNITROSAMINE, 13256-07-0, Dose [Inhibitor]: 0, 1000 PPM IN DIET FOR 13 WK BEGINNING 1 WK PRIOR TO CARCINOGEN TREATMENT (STUDY DURATION: 20 WK), Species: RAT, Strain/Sex: WISTAR/MALE, Target Tissue: Type of Lesion: TONGUE: SQUAMOUS CELL PAPILLOMA, Dose [Carcinogen]: 12.5 MG/KG BW 1/WK FOR 12 WK) is listed as 33%, 10%, 70%, not significant.
